From US11747335B2, “Compositions and methods for assaying platelet reactivity and treatment selection” (University of Vermont And State Agriculture College, priority 2012, dated 2023)
Entries after “also recorded” stand apart in the source; their conditions may differ. Like-named read-outs stand apart in the source and are kept apart here.

How the values were obtained:
[1] = tested on: human stem cell derived Megakaryocytes; experiment: Expression of FcγRIIa by human stem cell derived megakaryocytes; assay type: cell-based; conditions: IFNγ treatment; FIG. 11
Megakaryocyte cell line = experiment: Expression of FcγRIIa by a megakaryocyte cell line; assay type: cell-based; conditions: IFNγ treatment; FIG. 10
platelets [2] = experiment: cells; assay type: cell-based, human; conditions: for fold induction at 0.5 µg/mL: Homo sapiens, Platelet
Description: Volumes used minimize aggregation of platelets during activation. Activation of platelets was identified by anti-CD62-phycoerythrin (PE, identifies P-selectin) and fluorescein isothiocyanate (FITC)-conjugated PAC-1 (binds to activated GP IIb-IIIa) as described (Serrano F A, et al., Thromb J 2007; 5:7; Schneider D J, et al., Circulation 96:2877-83, 1997; Kabbani S S, et al., Circulation 2001; 104:181-6; Aggarwal A, et al., Am J Kidney Dis 2002; 40:315-22; and Schneider D J, et al., Diabetes Care, 32:944-9, 2009). Platelet expression of FcγRIIa was quantified with the use of anti-CD32-PE. For both assays (activation and quantification of expression of FcγRIIa) PE-Cy5-anti-CD42b was used as an activation independent marker of platelets. […] Fluorochrome labeled antibodies were from Becton Dickinson (San Jose, Calif.). […] Louis, Mo.), and ADP from BioData (Horsham, Pa.). […] J. et al., J Exp Med 1986; 163:826-836). The SRC kinase antagonist PP2 (EMD Biosciences) was dissolved in dimethylsulfoxide (DMSO, Sigma). Tirofiban was obtained from Merck Research Laboratories (Whitehouse Station, N.J.). The reaction mixture was incubated for 15 minutes at room temperature without stirring before platelets were fixed and erythrocytes lysed by addition of Optilyse-C solution (Beckman Coulter). Flow cytometric analysis was performed with the use of a Beckman Coulter FC500 (Miami, Fla.). Platelets were identified on the basis of size (forward and side scatter) and the binding of an activation independent ligand (anti-CD42b). As described, control samples to define a threshold for activation-dependent binding used non-immune IgG (Serrano F A, et al., Thromb J 2007; 5:7; Schneider D J, et al., Circulation 96:2877-83, 1997; Kabbani S S, et al., Circulation 2001; 104:181-6; Aggarwal A, et al., Am J Kidney Dis 2002; 40:315-22; and Schneider D J, et al., Diabetes Care, 32:944-9, 2009). Activation of platelets is reported as the percentage of platelets that bound an activation dependent ligand, a result that we have shown correlates directly with mean fluorescence intensity (Schneider D J, et al., Thromb Haemost 2001; 85:309-13).

FcγRIIa = experiment: Phosphorylation of FcγRIIa during platelet activation (immunoprecipitation, Western blot with anti-phosphotyrosine); assay type: cell-based, human
Experimental: Whole platelet lysates were prepared by the addition of an equal volume of 2× lysis buffer (2% Nonidet P-40 1, 300 mM NaCl, 50 mM Tris, 2 mM Na3VO4, halt protease and phosphatase inhibitor cocktail [Pierce Biochemicals], ph 7.3) in an ice bath for 30 min. Lysates to be used for immunoprecipitation were pre-cleared of antibodies by the addition of protein G Dynabeads (Invitrogen, Carlsbad, Calif.).
Immunoprecipitation was performed overnight at 4° C. with the use of goat anti-CD32A/C (Santa Cruz Biotechnology, Santa Cruz, Calif.) or a mouse anti-phosphotyrosine conjugated with magnetic beads (4G10, Millipore, Billerica, Mass.). When anti-CD32A/C was used, antigen-antibody complexes were isolated with the use of protein G-coated magnetic beads (Dynabeads, Invitrogen, Carlsbad, Calif.) for 3 hours. Beads with antigen-antibody complexes were washed once with 0.5× lysis buffer and twice with phosphate buffered saline. Proteins were separated from beads in sample buffer before electrophoresis and wet transfer to Immobilon FL membranes (Millipore, Billerica, Mass.). […] Bands were detected with the use of use of a Li-Cor Odyssey Infrared Imaging system (Li-Cor Biosciences, Lincoln, Nebr.) or chemiluminescence (Amersham/General Electric Healthcare, Piscataway, N.J.).

platelets [3] = experiment: Platelet activation in whole blood by flow cytometry, binding of PAC-1 (activated GP IIb-IIIa); assay type: cell-based, human
Description: Volumes used minimize aggregation of platelets during activation. Activation of platelets was identified by anti-CD62-phycoerythrin (PE, identifies P-selectin) and fluorescein isothiocyanate (FITC)-conjugated PAC-1 (binds to activated GP IIb-IIIa) as described (Serrano F A, et al., Thromb J 2007; 5:7; Schneider D J, et al., Circulation 96:2877-83, 1997; Kabbani S S, et al., Circulation 2001; 104:181-6; Aggarwal A, et al., Am J Kidney Dis 2002; 40:315-22; and Schneider D J, et al., Diabetes Care, 32:944-9, 2009). Platelet expression of FcγRIIa was quantified with the use of anti-CD32-PE. For both assays (activation and quantification of expression of FcγRIIa) PE-Cy5-anti-CD42b was used as an activation independent marker of platelets. […] Fluorochrome labeled antibodies were from Becton Dickinson (San Jose, Calif.). […] Louis, Mo.), and ADP from BioData (Horsham, Pa.). […] J. et al., J Exp Med 1986; 163:826-836). The SRC kinase antagonist PP2 (EMD Biosciences) was dissolved in dimethylsulfoxide (DMSO, Sigma). Tirofiban was obtained from Merck Research Laboratories (Whitehouse Station, N.J.). […] Activation of platelets is reported as the percentage of platelets that bound an activation dependent ligand, a result that we have shown correlates directly with mean fluorescence intensity (Schneider D J, et al., Thromb Haemost 2001; 85:309-13).

IFNγ: cytokine that increases FcγRIIa expression by megakaryocytes
effect on expression of FcγRIIa by human stem cell derived Megakaryocytes [1]: increases | effect on expression of FcγRIIa by a Megakaryocyte cell line (Megakaryocyte cell line): increases

CC(C)(C)n1nc(-c2ccc(Cl)cc2)c2c(N)ncnc21 [PP2]
effect of PP2 on agonist-induced platelet activation, P-selectin expression (platelets [2]; PP2 20 μM vs vehicle DMSO, whole blood, healthy subjects n=7, FIG. 6B): inhibited activation induced by each agonist | effect of PP2 on phosphorylation of FcγRIIa during platelet activation (FcγRIIa; PP2 20 μM): prevented phosphorylation | effect of PP2 on agonist-induced platelet activation, PAC-1 binding (platelets [3]; PP2 20 μM vs vehicle DMSO, whole blood, healthy subjects n=7, FIG. 6A): inhibited activation induced by each agonist

Nc1ncnc2c1ncn2[C@@H]1O[C@H](COP(=O)(O)OP(=O)(O)O)[C@@H](O)[C@H]1O [ADP, adenosine diphosphate]
time after exposure at which phosphorylation of FcγRIIa was greatest (FcγRIIa; platelets from healthy subjects, thrombin 50 nM, convulxin 10 ng/ml, ADP 25 μM, PAF 100 nM): 3 to 5 min

CCCCS(=O)(=O)N[C@@H](Cc1ccc(OCCCCC2CCNCC2)cc1)C(=O)O [tirofiban]
fold induction at 0.5 µg/mL (platelets [2]; read-out: fold induction of ADP induced platelet activation by added fibrinogen after pretreatment with tirofiban): 1.2 ± 0.1 | fold induction at 0.5 µg/mL (platelets [2]; read-out: fold induction of ADP-induced platelet activation by added Factor XIII after pretreatment with tirofiban): 0.8 ± 0.2 | effect of tirofiban on platelet activation induced by goat anti-FcγRIIa (platelets [2]; tirofiban 0.5 μg/ml, activator goat anti-FcγRIIa): nor did it alter activation | effect of tirofiban on agonist-induced P-selectin expression (platelets [2]; tirofiban 0.5 μg/ml, n=3 subjects, FIG. 5D): did not attenuate | effect of tirofiban on binding of PAC-1 to platelets (platelets [3]; tirofiban 0.5 μg/ml): blocked completely; also recorded: abolished binding of PAC-1
